The source made the active and inactive calls. No cut-off for these calls is given here.
Key:
[1] = AUClast in CD1 mouse plasma at 10 mg/kg, po administered as single dose by LC-MS/MS analysis; assay type: ADME, organism-based; set-up: dose 10 mg/kg, route oral, time 0 - last
Influenza A virus [2] = test: Antiviral activity against Influenza A virus (A/Denmark/524/2009(H1N1)) pdm09 infected in MDCK cells assessed as protection against virus-induced cell death measured 72 to 96 hrs post-infection by CellTiter-Glo assay; assay type: functional, organism-based; conditions: A/Denmark/524/2009(H1N1) pdm09, MDCK
[3] = Oral bioavailability in CD1 mouse at 10 mg/kg administered as single dose by LC-MS/MS analysis; assay type: ADME, organism-based; conditions: in vivo
[4] = Protein binding in mouse plasma at 1 uM measured after 4 hrs by LC-MS/MS analysis; assay type: ADME, cell-free; conditions: read-out: PPB (converted)
[5] = AUClast in CD1 mouse plasma at 2 mg/kg, iv administered as single dose by LC-MS/MS analysis; assay type: ADME, organism-based; set-up: dose 2 mg/kg, route intravenous, time 0 - last
[6] = Cmax in CD1 mouse plasma at 10 mg/kg, po administered as single dose by LC-MS/MS analysis; assay type: ADME, organism-based; set-up: dose 10 mg/kg, route oral
[7] = Cytotoxicity against human MRC5 cells assessed as reduction in cell viability by ATP bioluminescence assay; assay type: cell-based
Influenza A virus [8] = test: Antiviral activity against Influenza A/California/04/2009 (H1N1)pdm09 infected in specific pathogen-free BALB/c mouse assessed as reduction in virus titre in lung at 20 mg/kg, po administered via gavage immediately after infection and at 12 hrs post-infection measured 24 hrs post-infection; assay type: functional, organism-based
[9] = Cytotoxicity against MDCK cells assessed as reduction in cell viability by CellTiter-Glo assay; assay type: cell-based, Canis lupus familiaris; conditions: dog
[10] = Cmax in CD1 mouse lung at 10 mg/kg, po administered as single dose by LC-MS/MS analysis; assay type: ADME, organism-based; set-up: dose 10 mg/kg, route oral
Influenza A virus [11] = test: (§1) Antiviral activity against Influenza A/California/04/2009 (H1N1)pdm09 infected in specific pathogen-free BALB/c mouse assessed as protection against virus-induced mouse death at 50 mg/kg, po administered via gavage immediately after infection and at 12 hrs post-infection measured on 16 days post-infection relative to control; assay type: functional
[12] = Stability in rat liver S9 fraction assessed as parent compound remaining at 1 uM measured after 4 hrs by LC-MS/MS analysis; assay type: ADME, subcellular; conditions: read-out: Stability
[13] = Stability in simulated gastric fluid assessed as parent compound remaining at 1 uM measured after 4 hrs at pH 1.2 by LC-MS/MS analysis; assay type: physicochemical; conditions: read-out: Stability
[14] = Cytotoxicity against human HepG2 cells assessed as reduction in cell viability measured after 24 hrs in presence of galactose by MTT assay; assay type: cell-based
[15] = AUClast in CD1 mouse lung at 10 mg/kg, po administered as single dose by LC-MS/MS analysis; assay type: ADME, organism-based; conditions: in vivo
[16] = Toxicity in Influenza A/California/04/2009 (H1N1)pdm09 infected specific pathogen-free BALB/c mouse assessed as effect on body weight at 20 to 50 mg/kg, po administered via gavage immediately after infection and at 12 hrs post-infection measured after 10 days post-infection; assay type: organism-based; conditions: in vivo, 240 h
[17] = Stability in human plasma assessed as parent compound remaining at 1 uM measured after 4 hrs by LC-MS/MS analysis; assay type: ADME, cell-free; conditions: read-out: Stability
[18] = Protein binding in rat plasma at 1 uM measured after 4 hrs by LC-MS/MS analysis; assay type: ADME, cell-free; conditions: read-out: PPB (converted)
[19] = Stability in mouse liver S9 fraction assessed as parent compound remaining at 1 uM measured after 4 hrs by LC-MS/MS analysis; assay type: ADME, subcellular; conditions: read-out: Stability
[20] = Stability in mouse plasma assessed as parent compound remaining at 1 uM measured after 4 hrs by LC-MS/MS analysis; assay type: ADME, cell-free; conditions: read-out: Stability
HEK-293T [21] = test: (§2) Inhibition of CEN polymerase activity in Influenza A/California/04/2009 (H1N1)pdm09 NP/PA/PB1/PB2 complex transfected in HEK293T cells co-expressing beta-galactosidase at 100 nM preincubated for 3 hrs followed by viral gene transfection and measured after 24 hrs by ONPG substrate based luciferase reporter gene mini-replicon assay relative to control; assay type: cell-based; conditions: Influenza A virus (A/California/04/2009(H1N1))
[22] = Ratio of Cmax in CD1 mouse lung to plasma at 10 mg/kg, po administered as single dose by LC-MS/MS analysis; assay type: ADME, organism-based; conditions: lung and plasma
HEK-293T [23] = test: as §2, with “25” for “100”; assay type: cell-based; conditions: Influenza A virus (A/California/04/2009(H1N1))
[24] = molecular target: dopamine transporter (sodium-dependent dopamine transporter) (Homo sapiens, UniProt Q01959); test: Binding affinity to human dopamine transporter at 10 uM relative to control; assay type: ADME; conditions: read-out: Activity
dopamine transporter (sodium-dependent dopamine transporter), sequence (Q01959 whole entry): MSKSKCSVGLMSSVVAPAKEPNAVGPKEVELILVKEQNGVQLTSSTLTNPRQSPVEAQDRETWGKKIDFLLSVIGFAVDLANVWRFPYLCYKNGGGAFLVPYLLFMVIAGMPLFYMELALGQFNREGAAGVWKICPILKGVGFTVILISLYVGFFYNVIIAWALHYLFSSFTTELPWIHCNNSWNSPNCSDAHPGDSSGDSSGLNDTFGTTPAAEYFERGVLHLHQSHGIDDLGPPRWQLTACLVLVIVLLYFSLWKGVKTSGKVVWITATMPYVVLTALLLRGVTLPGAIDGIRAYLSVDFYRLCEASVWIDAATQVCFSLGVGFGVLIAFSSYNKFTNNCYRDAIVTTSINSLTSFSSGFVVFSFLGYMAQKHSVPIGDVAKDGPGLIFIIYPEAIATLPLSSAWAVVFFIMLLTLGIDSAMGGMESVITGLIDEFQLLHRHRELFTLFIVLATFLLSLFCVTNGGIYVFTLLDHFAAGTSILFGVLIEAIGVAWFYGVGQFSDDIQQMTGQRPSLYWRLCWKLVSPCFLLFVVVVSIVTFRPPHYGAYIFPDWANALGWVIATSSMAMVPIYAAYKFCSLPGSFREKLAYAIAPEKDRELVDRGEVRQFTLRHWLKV

[25] = Stability in human liver S9 fraction assessed as parent compound remaining at 1 uM measured after 4 hrs by LC-MS/MS analysis; assay type: ADME, subcellular; conditions: read-out: Stability
[26] = Stability in rat plasma assessed as parent compound remaining at 1 uM measured after 4 hrs by LC-MS/MS analysis; assay type: ADME, cell-free; conditions: read-out: Stability
Influenza A virus [27] = test: as §1, with “20” for “50”; assay type: functional
Influenza B virus [28] = test: Antiviral activity against Victoria lineage of Influenza B virus (B/Brisbane/60/2008) infected in MDCK cells assessed as protection against virus-induced cell death measured 72 to 96 hrs post-infection by CellTiter-Glo assay; assay type: functional, organism-based; conditions: B/Brisbane/60/2008, MDCK
Influenza A virus [29] = test: Antiviral activity against Influenza A/California/04/2009 (H1N1)pdm09 infected in MDCK cells assessed as protection against virus-induced cell death by CellTiter-Glo assay; assay type: functional, organism-based; conditions: A/California/04/2009(H1N1) pdm09, MDCK
[30] = Cytotoxicity against human HepG2 cells assessed as reduction in cell viability measured after 24 hrs in presence of glucose by MTT assay; assay type: cell-based
[31] = Cytotoxicity against MDCK cells assessed as reduction in cell viability by ATP bioluminescence assay; assay type: cell-based, Canis lupus familiaris; conditions: dog
[32] = Stability in simulated intestinal fluid assessed as parent compound remaining at 1 uM measured after 4 hrs at pH 1.2 by LC-MS/MS analysis; assay type: physicochemical; conditions: read-out: Stability
[33] = Selectivity index, ratio of CC50 for MDCK cells to EC50 for Influenza A/California/04/2009 (H1N1)pdm09 virus infected in MDCK cells; assay type: toxicity, cell-based; conditions: dog, read-out: Ratio CC50/EC50
Influenza B virus [34] = test: Antiviral activity against Yamagata lineage of Influenza B virus (B/Florida/4/2006) infected in MDCK cells assessed as protection against virus-induced cell death measured 72 to 96 hrs post-infection by CellTiter-Glo assay; assay type: functional, organism-based; conditions: B/Florida/4/2006, MDCK
[35] = Selectivity ratio of CC50 for human HepG2 cells assessed as reduction in cell viability measured after 24 hrs in presence of glucose to CC50 for human HepG2 cells assessed as reduction in cell viability measured after 24 hrs in presence of galactose; assay type: cell-based
[36] = Ratio of AUClast in CD1 mouse lung to plasma at 10 mg/kg, po administered as single dose by LC-MS/MS analysis; assay type: ADME, organism-based; conditions: lung and plasma, read-out: Ratio AUC
[37] = Cytotoxicity against human PBMC cells assessed as reduction in cell viability by ATP bioluminescence assay; assay type: cell-based
Influenza A virus H3N2 = test: Antiviral activity against Influenza A virus (A/Fukui/20/2004 (H3N2)) infected in MDCK cells assessed as protection against virus-induced cell death measured 72 to 96 hrs post-infection by CellTiter-Glo assay; assay type: functional, organism-based; conditions: A/Fukui/20/2004, MDCK
[38] = Protein binding in human plasma at 1 uM measured after 4 hrs by LC-MS/MS analysis; assay type: ADME, cell-free; conditions: read-out: PPB (converted)
[39] = Toxicity in Influenza A/California/04/2009 (H1N1)pdm09 infected specific pathogen-free BALB/c mouse assessed as reduction in body weight at 20 to 50 mg/kg, po administered via gavage immediately after infection and at 12 hrs post-infection measured on 10 days post-infection; assay type: organism-based; conditions: in vivo, 240 h
[40] = AUClast in CD1 mouse plasma assessed as (12aR)-12-[(R)-(3,4-Difluorophenyl)(phenyl)methyl]-7-hydroxy3,4,12,12a-tetrahydro-1H-[1,4]oxazino[3,4-c]pyrido[2,1-f ][1,2,4]-triazine-6,8-dione level at 15 mg/kg, po administered as single dose by LC-MS/MS analysis; assay type: ADME, organism-based; set-up: dose 15 mg/kg, route oral, time 0 - last; conditions: in vivo
[41] = Ratio of Cmax in CD1 mouse lung to plasma assessed as (12aR)-12-[(R)-(3,4-Difluorophenyl)(phenyl)methyl]-7-hydroxy3,4,12,12a-tetrahydro-1H-[1,4]oxazino[3,4-c]pyrido[2,1-f ][1,2,4]-triazine-6,8-dione level at 15 mg/kg, po administered as single dose by LC-MS/MS analysis; assay type: ADME, organism-based; conditions: other tissue
[42] = Ratio of AUClast in CD1 mouse lung to plasma assessed as (12aR)-12-[(R)-(3,4-Difluorophenyl)(phenyl)methyl]-7-hydroxy3,4,12,12a-tetrahydro-1H-[1,4]oxazino[3,4-c]pyrido[2,1-f ][1,2,4]-triazine-6,8-dione level at 15 mg/kg, po administered as single dose by LC-MS/MS analysis; assay type: ADME, organism-based; conditions: other tissue
[43] = Cmax in CD1 mouse lung assessed as (12aR)-12-[(R)-(3,4-Difluorophenyl)(phenyl)methyl]-7-hydroxy3,4,12,12a-tetrahydro-1H-[1,4]oxazino[3,4-c]pyrido[2,1-f ][1,2,4]-triazine-6,8-dione level at 15 mg/kg, po administered as single dose by LC-MS/MS analysis; assay type: ADME, organism-based; set-up: dose 15 mg/kg, route oral; conditions: in vivo
[44] = AUClast in CD1 mouse lung assessed as (12aR)-12-[(R)-(3,4-Difluorophenyl)(phenyl)methyl]-7-hydroxy3,4,12,12a-tetrahydro-1H-[1,4]oxazino[3,4-c]pyrido[2,1-f ][1,2,4]-triazine-6,8-dione level at 15 mg/kg, po administered as single dose by LC-MS/MS analysis; assay type: ADME, organism-based; conditions: in vivo
[45] = Cmax in CD1 mouse plasma assessed as (12aR)-12-[(R)-(3,4-Difluorophenyl)(phenyl)methyl]-7-hydroxy3,4,12,12a-tetrahydro-1H-[1,4]oxazino[3,4-c]pyrido[2,1-f ][1,2,4]-triazine-6,8-dione level at 15 mg/kg, po administered as single dose by LC-MS/MS analysis; assay type: ADME, organism-based; set-up: dose 15 mg/kg, route oral; conditions: in vivo
[46] = Oral bioavailability in CD1 mouse assessed as (12aR)-12-[(R)-(3,4-Difluorophenyl)(phenyl)methyl]-7-hydroxy3,4,12,12a-tetrahydro-1H-[1,4]oxazino[3,4-c]pyrido[2,1-f ][1,2,4]-triazine-6,8-dione level at 15 mg/kg administered as single dose by LC-MS/MS analysis; assay type: ADME, organism-based; conditions: in vivo

O=C1c2c(O)c(=O)ccn2N(C(c2ccccc2)c2ccccc2)[C@@H]2COCCN12
AUC(0-t) [1]: 2420 ng·h/mL | EC50 (Influenza A virus [2]): 3.6 to 12.5 nM | bioavailability [3]: 38.2% | fraction unbound at 4 h, 1 µM [4]: 0.138 | AUC(0-t) [5]: 844 ng·h/mL | Cmax [6]: 1660 ng/mL | CC50 [7]: > 100 µM | Activity (Influenza A virus [8]): Active | CC50 [9]: 12.1 µM | Cmax [10]: 3720 ng/g | Activity (Influenza A virus [11]): 60% | remaining at 4 h, 1 µM [12]: 79% | remaining at 4 h, 1 µM [13]: 96% | CC50 at 24 h [14]: 18 µM | AUClast [15]: 7477 ng·h/g | Activity [16]: Non-Toxic | remaining at 4 h, 1 µM [17]: 63.2% | fraction unbound at 4 h, 1 µM [18]: 0.193 | remaining at 4 h, 1 µM [19]: 97.1% | remaining at 4 h, 1 µM [20]: 70.1% | inhibition (HEK-293T [21]): 70% | Kp [22]: 2.2 | inhibition (HEK-293T [23]): 17.8% | activity at 10 µM [24]: 71.7% | remaining at 4 h, 1 µM [25]: 82.8% | remaining at 4 h, 1 µM [26]: 71.4% | Activity (Influenza A virus [27]): 80% | EC50 (Influenza B virus [28]): 5.1 to 28.3 µM | EC50 (Influenza A virus [29]): 18.5 nM | CC50 at 24 h [30]: 20 µM | CC50 [31]: 5.8 µM | remaining at 4 h, 1 µM [32]: 89.3% | selectivity ratio [33]: 654 | EC50 (Influenza B virus [34]): 5.1 to 28.3 µM | selectivity ratio at 24 h [35]: 1.1 | Kp [36]: 3.1 | CC50 [37]: 21 µM | EC50 (Influenza A virus H3N2): 3.6 to 12.5 nM | fraction unbound at 4 h, 1 µM [38]: 0.033 | Activity [39]: Toxic

COC(=O)OCOc1c2n(ccc1=O)N([C@H](c1ccccc1)c1ccc(F)c(F)c1)[C@@H]1COCCN1C2=O
AUClast [40]: 9448 ng·h/mL | Ratio [41]: 2.1 | Ratio AUC [42]: 3.2 | Cmax [43]: 4464 ng/g | AUClast [44]: 30130 ng·h/g | Cmax [45]: 2090 ng/mL | F [46]: 56.9%
